The values that follow come from paper PMC12165992, “Biochemical characterization of lipase from Cryptococcus albidus (D24) and its application in sugar fatty acid ester synthesis” (Archives of Microbiology, 2025).

The assay concerns T1, D24 lipase.
T1 construct: native extracellular lipase from culture supernatant, only partially purified (dialysed, 10 kDa cut-off concentrated)
Kind of assay: spectrophotometric p-nitrophenyl palmitate hydrolysis, Lineweaver-Burk. The class given is biochemical, Naganishia albida. The settings on record: pH 5.6, 37 °C; partially purified native enzyme, free.

Broadly, the Km is the concentration of substrate that gives half-maximal velocity. Turning to `CCCCCCCCCCCCCCCC(=O)Oc1ccc([N+](=O)[O-])cc1` [p-nitrophenyl palmitate], the Km was determined as 0.158 µM.
